From patent US9067928B2 (Genentech, Inc., priority 2008, dated 2015)

Key:
Bcl-xL [1] = target: T1, Bcl-xL (Homo sapiens, UniProt Q07817); test: TR-FRET binding assay, competition with F-Bak for Bcl-xL binding site; settings: GST-Bcl-xL, F-Bak probe
T1 construct: made in house
Procedure: The measurement of competition of compounds of the invention with F-Bak for a Bcl-2 family protein (Bcl-xL) binding site using a Time Resolved Fluorescence Resonance Energy Transfer (TR-FRET) Binding Assay:
(§1) Test compounds were serially diluted in DMSO starting at 50 μM (2× starting concentration; 10% DMSO) and 10 μL transferred into a 384-well plate.
(§2) The samples are then mixed on a shaker for 1 minute then incubated for an additional 2 hours at room temperature. For each assay plate, a probe/antibody and protein/antibody/probe mixture were included as a negative and a positive control, respectively. Fluorescence was measured on the Envision (Perkin Elmer) using a 340/35 nm excitation filter and 520/525 (F-Bak) and 495/510 nm (Tb-labeled anti-his antibody) emission filters. Dissociation constants (Ki) were determined using Wang's equation (see, Wang, Z. X. An exact mathematical expression for describing competitive binding of two different ligands to a protein molecule. FEBS Lett. 1995 360:111-114). The TR-FRET assay can be performed in the presence of varying concentrations of human serum (HS) or fetal bovine serum (FBS).

Bcl-xL [2] = target: T1, Bcl-xL; test: Alpha Screen Bcl-xL binding assay, competition with Bim26-mer; settings: values listed in the order of Table 1; read-out: Alphascreen results (IC50)
Bcl-2 = target: T2, Bcl-2 (Homo sapiens, UniProt P10415); test: TR-FRET binding assay, competition with F-Bak for Bcl-2 binding site; settings: GST-Bcl-2, F-Bak probe
T2 construct: made in house
Procedure: as §1, §2
For comparison, the measurement of the competition of compounds of the invention for other Bcl-2 family protein binding sites (e.g., Bcl-2, Mcl-1) using the TR-FRET binding assay was accomplish by substituting GST-Bcl-xL in the TR-FRET assay with other GST-labeled protein, e.g. GST-Bcl-2, GST-Mcl-1 prepared in-house.
For comparison, data (Ki in micromolar) from the measurement of the competition by certain compounds of the invention (i.e., compounds 1, 28, 38, 63, 71, 75, 80, 81, 92 and 94 in Table 1) with F-Bak for the Bcl-2 binding site using the TR-FRET binding assay are, 1.2, 0.15, 0.01, 0.018, 0.50, 0.272, 0.167, 0.66, 0.23 and 0.000003 respectively.

T1 sequence (Q07817 whole entry, species assumed): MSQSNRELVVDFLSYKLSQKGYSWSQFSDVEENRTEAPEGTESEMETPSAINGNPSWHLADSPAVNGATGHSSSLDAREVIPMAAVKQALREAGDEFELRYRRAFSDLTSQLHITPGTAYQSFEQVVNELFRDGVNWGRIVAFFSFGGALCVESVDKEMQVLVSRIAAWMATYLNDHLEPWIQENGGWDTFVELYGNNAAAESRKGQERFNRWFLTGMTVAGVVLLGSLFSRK
T2 sequence (P10415 whole entry, species assumed): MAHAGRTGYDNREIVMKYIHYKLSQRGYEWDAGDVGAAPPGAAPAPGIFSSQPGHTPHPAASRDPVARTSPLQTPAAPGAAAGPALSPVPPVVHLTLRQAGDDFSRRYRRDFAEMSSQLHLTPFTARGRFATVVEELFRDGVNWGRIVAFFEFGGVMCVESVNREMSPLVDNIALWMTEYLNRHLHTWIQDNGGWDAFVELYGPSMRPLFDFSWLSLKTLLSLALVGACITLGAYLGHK

## O=C(O)c1nc(-c2ccc3c(c2)N(C(=O)Nc2nc4ccccc4s2)CCC3)sc1-c1ccc(-c2ccccc2)cc1 [Example 92, 2-(1-(benzo[d]thiazol-2-ylcarbamoyl)-1,2,3,4-tetrahydroquinolin-7-yl)-5-(biphenyl-4-yl)thiazole-4-carboxylic acid]
Bcl-xL [1]
  Ki: 0.5 nM
Bcl-xL [2]
  IC50: 2 nM
Bcl-2
  Ki: 230 nM
